Experimental data reported in US6495525B1, “VLA-4 inhibitor: oMePUPA-V” (Biogen, Inc., priority 1998, dated 2002).

Legend:
α4β7 = target: T1, α4β7 (Homo sapiens, UniProt P13612+P26010); assay: VCAM-Ig Direct Binding Assay on JY cells (α4β7)
T1 construct: endogenous in cells; host or cells: JY cells
T1 sequence (P13612 34-1032): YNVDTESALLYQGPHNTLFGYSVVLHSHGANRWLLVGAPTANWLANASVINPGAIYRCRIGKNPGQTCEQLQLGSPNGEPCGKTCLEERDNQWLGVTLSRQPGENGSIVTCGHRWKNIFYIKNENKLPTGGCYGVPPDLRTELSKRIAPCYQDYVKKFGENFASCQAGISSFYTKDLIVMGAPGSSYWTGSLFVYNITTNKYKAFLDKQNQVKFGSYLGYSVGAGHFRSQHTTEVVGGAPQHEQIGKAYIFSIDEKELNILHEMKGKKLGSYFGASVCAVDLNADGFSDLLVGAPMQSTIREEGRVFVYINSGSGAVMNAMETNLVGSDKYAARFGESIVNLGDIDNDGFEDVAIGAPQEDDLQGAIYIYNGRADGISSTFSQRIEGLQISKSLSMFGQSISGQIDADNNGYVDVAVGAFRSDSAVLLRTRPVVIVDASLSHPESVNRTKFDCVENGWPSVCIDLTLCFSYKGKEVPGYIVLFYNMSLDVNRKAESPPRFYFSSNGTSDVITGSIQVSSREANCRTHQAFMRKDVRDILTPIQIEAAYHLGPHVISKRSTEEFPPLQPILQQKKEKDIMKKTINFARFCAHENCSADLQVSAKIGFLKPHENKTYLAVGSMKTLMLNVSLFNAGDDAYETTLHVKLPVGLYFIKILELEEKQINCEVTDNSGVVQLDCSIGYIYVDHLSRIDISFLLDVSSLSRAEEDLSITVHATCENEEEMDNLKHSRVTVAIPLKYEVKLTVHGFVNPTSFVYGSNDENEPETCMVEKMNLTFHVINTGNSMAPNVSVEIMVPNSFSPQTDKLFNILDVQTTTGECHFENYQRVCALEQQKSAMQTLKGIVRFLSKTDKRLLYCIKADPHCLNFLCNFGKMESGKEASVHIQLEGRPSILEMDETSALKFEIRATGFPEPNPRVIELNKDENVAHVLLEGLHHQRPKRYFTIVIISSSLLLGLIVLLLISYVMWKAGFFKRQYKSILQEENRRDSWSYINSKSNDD
T1 sequence (P26010 20-798): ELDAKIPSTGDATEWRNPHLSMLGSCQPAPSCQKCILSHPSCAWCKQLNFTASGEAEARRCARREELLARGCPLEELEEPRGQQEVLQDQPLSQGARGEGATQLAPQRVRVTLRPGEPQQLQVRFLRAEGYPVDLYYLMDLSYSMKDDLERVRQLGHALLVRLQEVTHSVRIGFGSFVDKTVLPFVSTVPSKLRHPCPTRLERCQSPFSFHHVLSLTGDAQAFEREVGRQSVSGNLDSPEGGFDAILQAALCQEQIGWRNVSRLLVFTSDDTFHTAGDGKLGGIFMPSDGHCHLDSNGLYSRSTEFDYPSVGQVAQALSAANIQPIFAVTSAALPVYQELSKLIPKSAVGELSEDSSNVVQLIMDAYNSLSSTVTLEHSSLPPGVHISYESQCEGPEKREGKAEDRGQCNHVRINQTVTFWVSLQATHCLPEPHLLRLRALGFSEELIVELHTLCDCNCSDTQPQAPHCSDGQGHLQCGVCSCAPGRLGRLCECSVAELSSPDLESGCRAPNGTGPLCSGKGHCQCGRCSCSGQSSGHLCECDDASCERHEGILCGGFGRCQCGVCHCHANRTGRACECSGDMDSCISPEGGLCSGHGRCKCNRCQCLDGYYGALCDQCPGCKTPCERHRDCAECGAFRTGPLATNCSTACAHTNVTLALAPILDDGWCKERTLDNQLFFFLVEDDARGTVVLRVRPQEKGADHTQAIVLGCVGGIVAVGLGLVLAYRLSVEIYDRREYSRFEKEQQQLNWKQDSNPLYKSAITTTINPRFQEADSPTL
Method: In order to assess the VLA-4 inhibitory specificity of the compounds of this invention, assays for other major groups of integrins, i.e., β2and β3, as well as other β1 integrins, such as VLA-5, VLA-6 and α4β7 are performed. These assays may be similar to the adhesion inhibition and direct binding assays described above, substituting the appropriate integrin-expressing cell and corresponding ligand. For example, polymorphonuclear cells (PMNs) express β2 integrins on their surface and bind to ICAM. β3 integrins are involved in platelet aggregation and inhibition may be measured in a standard platelet aggregation assay. VLA-5 binds specifically to Arg-Gly-Asp sequences, while VLA-6 binds to laminin. α4β7 is a recently discovered homologue of VLA-4, which also binds fibronectin and VCAM. Specificity with respect to α4β7 is determined in a binding assay that utilizes the above-described VCAM-IgG-enzyme marker conjugate and a cell line that expresses α4β7, but not VLA-4, such as RPMI-8866 or JY cells.
Binding to α4β7 was assessed on JY cells in the presence of Mn^+2. In the binding assay, VCAM-Ig and oMePUPA-V compete for binding to α4β7 on JY cells (See section 4.1.1 for assay protocol). In the cell adhesion assay, oMePUPA-V was tested for its ability to block JY (α4β7) cell binding to CS1/BSA conjugate

[1] = Proteolytic stability, in vitro metabolism and in vivo PK studies; type: in vitro ADME; conditions: in vitro metabolism studies and in vivo PK studies in rat, dog and sheep
VLA-4 = VLA-4 (Homo sapiens, UniProt P05556+P13612); assay: VLA-4-VCAM-Ig binding (Table 1; VLA-4 binding assays); set-up: endogenous in cells; host or cells: Jurkat (human T cell line); conditions: read-out: IC50 against VLA-4-VCAM-Ig binding
Source text: A direct binding assay may also be employed to quantitate the inhibitory activity of the compounds of this invention. In this assay, a VCAM-IgG fusion protein containing the first two immunoglobulin domains of VCAM (D1D2) attached above the hinge region of an IgG1 molecule (“VCAM 2D-IgG”), is conjugated to a marker enzyme, such as alkaline phosphatase (“AP”). The synthesis of this VCAM-IgG fusion is described in PCT publication WO 90/13300, the disclosure of which is herein incorporated by reference. The conjugation of that fusion to a marker enzyme is achieved by cross-linking methods well-known in the art.
The VCAM-IgG enzyme conjugate is then placed in the wells of a multi-well filtration plate, such as that contained in the Millipore Multiscreen Assay System (Millipore Corp., Bedford, Ma.). Varying concentrations of the test inhibitory compound are then added to the wells followed by addition of VLA-4-expressing cells. The cells, compound and VCAM-IgG enzyme conjugate are mixed together and allowed to incubate at room temperature.
Following incubation, the wells are vacuum drained, leaving behind the cells and any bound VCAM. Quantitation of bound VCAM is determined by adding an appropriate colorimetric substrate for the enzyme conjugated to VCAM-IgG and determining the amount of reaction product. Decreased reaction product indicates increased binding inhibitory activity. […]

VLA-4, sequence (P05556 21-798, one chain of several): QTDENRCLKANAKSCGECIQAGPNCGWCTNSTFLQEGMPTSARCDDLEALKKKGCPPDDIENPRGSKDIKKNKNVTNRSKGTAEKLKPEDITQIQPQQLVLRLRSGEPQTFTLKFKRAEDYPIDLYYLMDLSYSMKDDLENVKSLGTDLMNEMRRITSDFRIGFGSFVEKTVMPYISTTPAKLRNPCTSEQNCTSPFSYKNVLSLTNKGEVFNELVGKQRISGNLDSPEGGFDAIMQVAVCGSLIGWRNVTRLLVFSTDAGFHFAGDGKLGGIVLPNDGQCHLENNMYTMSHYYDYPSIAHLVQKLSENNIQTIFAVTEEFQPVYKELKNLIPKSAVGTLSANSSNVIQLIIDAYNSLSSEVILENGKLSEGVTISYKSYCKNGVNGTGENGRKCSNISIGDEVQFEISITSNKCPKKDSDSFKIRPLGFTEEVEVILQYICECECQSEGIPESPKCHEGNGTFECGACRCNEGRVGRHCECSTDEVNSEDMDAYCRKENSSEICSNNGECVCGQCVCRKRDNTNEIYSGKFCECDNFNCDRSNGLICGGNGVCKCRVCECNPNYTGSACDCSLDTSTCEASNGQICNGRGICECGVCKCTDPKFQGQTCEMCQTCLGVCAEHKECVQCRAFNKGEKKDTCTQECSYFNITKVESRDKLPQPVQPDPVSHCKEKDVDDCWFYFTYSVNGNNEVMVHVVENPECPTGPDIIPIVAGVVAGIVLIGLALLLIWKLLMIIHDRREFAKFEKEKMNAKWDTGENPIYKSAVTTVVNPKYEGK

Cc1ccccc1NC(=O)Nc1ccc(CC(=O)N2CCC[C@H]2C(=O)N[C@H](C)CC(=O)O)cc1 [oMePUPA-V]
measurable activity against α4β7 (α4β7): > 100 µM
inhibition at 100 µM (α4β7; @ 100 μM, Mn+2, read-out: inhibition, JY (α4β7) VCAM-Ig DBA): 3%
blocking of α4β7 binding to VCAM-Ig (in words) (α4β7; JY cells, Mn+2): does not block
IC50 (α4β7; read-out: IC50 against α4β7-VCAM-Ig binding): > 100000 nM
proteolytic stability [1]: proteolytically stable
IC50 (VLA-4): 2.7 nM
